According to PubChem BioAssay (NCI):
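Cells were grown in 96-well plates and exposed to each compound for 48 hours at five concentrations; endpoints were interpolated linearly between bracketing concentrations, or set to the highest concentration if not reached. TGI: total growth inhibition.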 *1 amine or outer side, *2 acyl side, *3 side chain or, on linkers, in order; H or OH if unused. Where a SMILES comes first, the peptide text is derived from it. [ ]: non-standard residue; d: D form. The star is where a group is joined. ξ: configuration not given here. X27 = O=C([C@H]1CCC[C@H]1N[*:1])[*:2]; ξW = NC(Cc1c[nH]c2ccccc12)C(=O)O; ξF = NC(Cc1ccccc1)C(=O)O; Boc = CC(C)(C)OC(=O)*; ξK = NCCCCC(N)C(=O)O; ξT = CC(O)C(N)C(=O)O; tBu = CC(C)(C)*

Columns and labels:
Test in all cases: growth of human tumour cells (NCI), 48 h
A549 NSCLC = tested on: A549 NSCLC
CCRF-CEM leukemia = tested on: CCRF-CEM leukemia
HCT-116 colon = tested on: HCT-116 colon
HS 578T breast = tested on: HS 578T breast
KM12 colon = tested on: KM12 colon
MCF7 breast = tested on: MCF7 breast
NCI-H522 lung = tested on: NCI-H522 lung
OVCAR-3 ovarian = tested on: OVCAR-3 ovarian
SN12C renal = tested on: SN12C renal
UACC-257 melanoma = tested on: UACC-257 melanoma

| SMILES | TGI (A549 NSCLC) | TGI (CCRF-CEM leukemia) | TGI (HCT-116 colon) | TGI (HS 578T breast) | TGI (KM12 colon) | TGI (MCF7 breast) | TGI (NCI-H522 lung) | TGI (OVCAR-3 ovarian) | TGI (SN12C renal) | TGI (UACC-257 melanoma) |
| --- | --- | --- | --- | --- | --- | --- | --- | --- | --- | --- |
| O=[N+]([O-])c1ccc(-c2cc(O)c3nc4ccccc4n3c2)cc1 | > 100 µM | > 100 µM | > 100 µM | > 100 µM | > 100 µM | > 100 µM | > 100 µM | > 100 µM | > 100 µM | > 100 µM |
| CN(C)CCCC1c2ccccc2Oc2ccc(C(F)(F)F)cc21 (stereo not given) | 29.8 µM | 31.5 µM | 25.6 µM | 31.8 µM | 28.4 µM | 26.6 µM | 29.4 µM | 29.2 µM | 28.2 µM | 26.5 µM |
| O=C(c1cc2ccccc2[nH]1)N1C2CCC1CN(CCOC(c1ccc(F)cc1)c1ccc(F)cc1)CC2 (stereo not given) | > 100 µM | > 100 µM | > 100 µM | > 100 µM | > 100 µM | > 100 µM | > 100 µM | > 100 µM | > 100 µM | > 100 µM |
| O=c1ccn(CC2(CO)CCCC2)c(=O)[nH]1 | > 100 µM | > 100 µM | > 100 µM | > 100 µM | > 100 µM | > 100 µM | > 100 µM | > 100 µM | > 100 µM | > 100 µM |
| COC(=O)c1c(C)cccc1C1CN=NC12Cc1ccccc1C2=O (stereo not given) | > 100 µM | > 100 µM | > 100 µM | > 100 µM | > 100 µM | > 43.8 µM | > 100 µM | > 100 µM | > 100 µM | > 91.3 µM |
| C=CCNC(=S)N=Nc1c(O)n(CN2CCOCC2)c2ccc([N+](=O)[O-])cc12 | > 100 µM | > 100 µM | > 100 µM | > 100 µM | > 100 µM | > 100 µM | > 100 µM | > 100 µM | > 100 µM | > 100 µM |
| CCCCCC1CC=CC(=O)O1 (stereo not given) | 65.8 µM | 19.7 µM | 5.83 µM | 88.5 µM | 20.5 µM | 40.3 µM | 9.71 µM | 31.3 µM | 21.2 µM | 32.9 µM |
| O=[N+]([O-])c1ccc2nc(Cl)n[n+]([O-])c2c1 | 42.6 µM | 2.8 µM | 25.8 µM | > 100 µM | 51.8 µM | 20 µM | 25.8 µM | 21.9 µM | 37.4 µM | 29.3 µM |
| CCOc1ccc2nc3nc(=O)[nH]c(C)c3c(NCCCN(CC)CC)c2c1 | > 100 µM | > 100 µM | > 100 µM | > 100 µM | > 100 µM | > 100 µM | > 100 µM | > 100 µM | > 100 µM | > 100 µM |
| C=C1CCCC2[C@](C)(CC3=C(Cl)C(=O)C=C(OC)C3=O)C(C)CC[C@]12C (stereo not given in full) | 11.1 µM | 11.6 µM | 6.43 µM | 26 µM | 8.14 µM | 6.18 µM | 3.18 µM | 11.9 µM | 12.5 µM | 13.6 µM |
| CC(OC(C)(C)C)C1NC(=O)C(CCCCNC(=O)OC(C)(C)C)NC(=O)C(Cc2c[nH]c3ccccc23)NC(=O)C(Cc2ccccc2)NC(=O)[C@H]2CCC[C@H]2NC(=O)C(Cc2ccccc2)NC1=O (stereo not given in full) (cyclo([X27][ξF][ξW][ξK](Boc)[ξT](tBu)[ξF])) | > 100 µM | > 100 µM | > 100 µM | 28.4 µM | > 100 µM | > 100 µM | > 100 µM | > 100 µM | 88.6 µM | 33.5 µM |
| Cc1ccc(S(=O)(=O)CN2C(=O)C(c3ccccc3)(c3ccccc3)C23OC(c2ccc(Cl)cc2)=CC3=O)cc1 (stereo not given) | > 10 µM | > 10 µM | > 10 µM | > 10 µM | > 10 µM | > 10 µM | > 10 µM | > 10 µM | > 10 µM | > 10 µM |
| Cc1sc2[nH]c(=O)oc(=O)c2c1C | > 100 µM | > 100 µM | > 100 µM | > 71 µM | > 93.3 µM | > 78.9 µM | > 83.1 µM | > 100 µM | > 100 µM | > 100 µM |
| CCCCc1ccc(Nc2nc(Cl)c3ncn(COCCOC(C)=O)c3n2)cc1 | 51.2 µM | > 100 µM | 31.7 µM | 52.7 µM | 41.3 µM | 93.7 µM | 42.9 µM | 43.4 µM | 39.8 µM | 36.4 µM |
| CCc1c(CN)c(CC)c(CNC2=NCCN2)c(CC)c1CNC1=NCCN1 | > 100 µM | > 100 µM | > 100 µM | > 100 µM | > 100 µM | > 100 µM | > 100 µM | > 100 µM | > 100 µM | > 100 µM |
| Cc1ccc(S(=O)(=O)N2CCN(S(=O)(=O)c3ccc(C)cc3)CCN(S(=O)(=O)c3ccc(C)cc3)Cc3cc(C#N)c(C#N)cc3CN(S(=O)(=O)c3ccc(C)cc3)CC2)cc1 | > 100 µM | > 100 µM | > 100 µM | > 100 µM | > 100 µM | > 100 µM | > 100 µM | > 100 µM | > 100 µM | > 100 µM |
